In the assay the target is T1, Recombinant SR (serine racemase) (Homo sapiens, UniProt Q9GZT4).
T1 construct: made in house; host or cells: Escherichia coli
T1 sequence (Q9GZT4 1-340): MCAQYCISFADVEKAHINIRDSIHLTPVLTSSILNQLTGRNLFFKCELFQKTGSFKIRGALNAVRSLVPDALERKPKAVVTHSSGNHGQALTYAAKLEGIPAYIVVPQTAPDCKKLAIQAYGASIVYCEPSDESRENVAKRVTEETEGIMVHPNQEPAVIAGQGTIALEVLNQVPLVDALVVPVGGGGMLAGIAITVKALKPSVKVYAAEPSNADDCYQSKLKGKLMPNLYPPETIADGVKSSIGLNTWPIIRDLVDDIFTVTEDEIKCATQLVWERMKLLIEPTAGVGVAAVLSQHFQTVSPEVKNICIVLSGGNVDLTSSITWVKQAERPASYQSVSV
Kind of assay: Serine racemase (SR) enzyme activity measurement: L-serine racemization reaction, D-serine quantified via Dsd1/DNP colorimetry. To be noted: compound 0.3 mM (footnote ‡); value in parentheses = malonic acid (control) in the same run. The assay is classed as biochemical. On the procedure:
(1) L-Serine Racemization Reaction
(2) Quantitative Determination of D-serine
D-serine was quantitatively determined in accordance with the method proposed by Ito et al. (Analytical Biochemistry, 371: 167-172, 2007).
A solution including 25 μL of 100 mM HEPES (pH: 8.0), 20 μM PLP, and 2 μg of recombinant D-serine dehydratase 1 (Dsd1) was added to 25 μL of the reaction mixture (see (1)), and the mixture was reacted at 30° C. for 30 minutes.
In order to measure pyruvic acid produced from D-serine by Dsd1 using a colorimetric reaction, 50 μL of 0.05% DNP/2M HCl was added to 50 μL of the reaction solution, and the mixture was reacted at 30° C. for 5 minutes. After the addition of 100 μL of ethanol and 125 μL of 10 M NaOH, the mixture was sufficiently mixed, and reacted at room temperature for 10 minutes, and the absorbance at a wavelength of 515 nm was measured using a spectrophotometer.
In the case of `O=C(Nc1ccc(Cl)c(Cl)c1)Nc1ccccc1NS(=O)(=O)c1ccc(Br)cc1` [ED-27, 4-Bromo-N-{2-[3-(3,4-dichloro-phenyl)-ureido]-phenyl}-benzenesulfonamide], the “% human (0. 3 mM)” value came to 48%.
Consider `COc1ccc(S(=O)(=O)Nc2ccccc2NC(=O)Nc2ccc(Cl)c(Cl)c2)cc1` [ED-31, N-{2-[3-(3,4-Dichloro-phenyl)-ureido]-phenyl}-4-methoxy-benzenesulfonamide], for which the “% human (0. 3 mM)” value came out at 58%.
In the case of `O=C(Nc1ccc(Cl)cc1Cl)Nc1ccccc1NS(=O)(=O)c1ccc(Cl)cc1` [ED-36, 4-Chloro-N-{2-[3-(2,4-dichloro-phenyl)-ureido]-phenyl}-benzenesulfonamide] it was 46%.
Take `Cc1ccc(/C=C/S(=O)(=O)Nc2ccccc2NC(=O)Nc2ccc(Cl)c(Cl)c2)cc1` [ED-37, 2-p-Tolyl-ethenesulfonic acid {2-[3-(3,4-dichloro-phenyl)-ureido]phenyl}-amide]: the “% human (0. 3 mM)” value was determined as 48%.
For the molecule `O=C(O)CC(=O)O` [malonic acid, reference compound], the “% human (0. 3 mM)” value is 51%.

(Values after patent US9216954B2, “Serine racemase inhibitor” (National University Corporation University of Toyama, priority 2012, dated 2015).)
